Data set [1] concerns the target T1, human TLR7 (Homo sapiens, UniProt Q9NYK1).
T1 construct: host or cells: HEK293 (HEK-Blue hTLR7)
T1 sequence (Q9NYK1 27-1049): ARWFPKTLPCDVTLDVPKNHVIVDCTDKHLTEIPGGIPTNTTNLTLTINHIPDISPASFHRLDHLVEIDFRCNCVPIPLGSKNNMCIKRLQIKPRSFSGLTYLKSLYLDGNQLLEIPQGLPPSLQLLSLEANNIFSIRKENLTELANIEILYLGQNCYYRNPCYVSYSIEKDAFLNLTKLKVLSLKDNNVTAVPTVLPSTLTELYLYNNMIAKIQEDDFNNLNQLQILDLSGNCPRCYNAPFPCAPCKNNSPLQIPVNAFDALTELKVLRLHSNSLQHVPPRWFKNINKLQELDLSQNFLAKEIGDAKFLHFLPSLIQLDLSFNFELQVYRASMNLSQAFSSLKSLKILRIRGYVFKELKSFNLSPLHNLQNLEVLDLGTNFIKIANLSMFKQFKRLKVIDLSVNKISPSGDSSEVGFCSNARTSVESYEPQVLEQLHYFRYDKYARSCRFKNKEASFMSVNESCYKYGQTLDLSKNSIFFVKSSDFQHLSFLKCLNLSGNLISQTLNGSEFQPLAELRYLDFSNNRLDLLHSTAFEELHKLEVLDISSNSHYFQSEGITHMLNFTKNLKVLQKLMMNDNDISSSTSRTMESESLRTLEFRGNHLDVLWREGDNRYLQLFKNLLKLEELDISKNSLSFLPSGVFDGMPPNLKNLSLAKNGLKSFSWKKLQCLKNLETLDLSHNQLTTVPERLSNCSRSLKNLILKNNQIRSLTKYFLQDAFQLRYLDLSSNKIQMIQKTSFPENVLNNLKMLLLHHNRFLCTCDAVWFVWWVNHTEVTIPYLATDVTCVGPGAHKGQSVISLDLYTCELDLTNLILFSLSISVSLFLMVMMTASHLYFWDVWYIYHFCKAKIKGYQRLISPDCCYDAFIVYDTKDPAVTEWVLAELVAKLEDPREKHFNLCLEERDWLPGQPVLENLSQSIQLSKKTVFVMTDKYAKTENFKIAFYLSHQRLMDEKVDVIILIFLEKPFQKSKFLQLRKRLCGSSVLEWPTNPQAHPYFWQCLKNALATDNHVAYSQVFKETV
In words: HEK293-Blue-hTLR-7 cells assay (SEAP reporter, R848 stimulation). Conditions: HEK293-Blue-hTLR7 cells, R848, 20 hrs. The data set is classed as cell-based. The method, then:
The following tests were carried out in order to determine the activity of the compounds of formula (I) in HEK293-Blue-hTLR-7/8/9 cells assay.
HEK293-Blue-hTLR-7 Cells Assay:
A stable HEK293-Blue-hTLR-7 cell line was purchased from InvivoGen (Cat. #: hkb-htlr7, San Diego, Calif. USA). These cells were originally designed for studying the stimulation of human TLR7 by monitoring the activation of NF-κB. A SEAP (secreted embryonic alkaline phosphatase) reporter gene was placed under the control of the IFN-β minimal promoter fused to five NF-κB and AP-1-binding sites. The SEAP was induced by activating NF-κB and AP-1 via stimulating HEK-Blue hTLR7 cells with TLR7 ligands. Therefore the reporter expression was declined by TLR7 antagonist under the stimulation of a ligand, such as R848 (Resiquimod), for incubation of 20 hrs. The cell culture supernatant SEAP reporter activity was determined using QUANTI-Blue™ kit (Cat. #: rep-qbl, Invivogen, San Diego, Calif., USA) at a wavelength of 640 nm, a detection medium that turns purple or blue in the presence of alkaline phosphatase.
HEK293-Blue-hTLR7 cells were incubated at a density of 250,000˜450,000 cells/mL in a volume of 170 μL in a 96-well plate in Dulbecco's Modified Eagle's medium (DMEM) containing 4.5 g/L glucose, 50 U/mL penicillin, […], […], 2 mM L-glutamine, 10% (v/v) heat-inactivated fetal bovine serum with addition of 20 μL A test compound in a serial dilution in the presence of final DMSO at 1% and 10 μL of 20 uM R848 in above DMEM, perform incubation under 37° C. in a CO2 incubator for 20 hrs. Then 20 μL of the supernatant from each well was incubated with 180 μQuanti-blue substrate solution at 37° C. for 2 hrs and the absorbance was read at 620˜655 nm using a spectrophotometer. The signalling pathway that TLR7 activation leads to downstream NF-κB activation has been widely accepted, and therefore similar reporter assay was modified for evaluating TLR7 antagonist.

Data set [2] in a line: LYSA solubility assay. The class given is physicochemical. Particulars: for solubility thermodynamic: thermodynamic from solid. The method, then: LYSA study is used to determine the aqueous solubility of tested compounds. Samples are prepared in duplicate from 10 mM DMSO stock solution. After evaporation of DMSO with a centrifugal vacuum evaporator, compounds are dissolved in a 0.05 M phosphate buffer (pH 6.5), stirred for one hr and shaken for two hrs. After one night, the solutions are filtered using a microtiter filter plate. Then the filtrate and its 1/10 dilution are analyzed by HPLC-UV. In addition, a four-point calibration curve is prepared from the 10 mM stock solutions and used for the solubility determination of the compounds. The results are in μg/mL. In case the percentage of sample measured in solution after evaporation divided by the calculated maximum of sample amount is bigger than 80%, the solubility is reported as bigger than this value.

The mark [3] stands for this setting: 0.05 M phosphate buffer, pH 6.5, aqueous buffer.
Setting [4] is: 0.05 M phosphate buffer (pH 6.5).

Converted amounts (≈) assume the structure as drawn.

`C[C@@H]1CN(c2ccc(C(F)(F)F)c3ncccc23)C[C@H](C(=O)NC2CC3COCC(C2)N3)O1` (stereo partly drawn) [Example 33, (2R,6R)-6-methyl-N-(3-oxa-9-azabicyclo[3.3.1]nonan-7-yl)-4-[8-(trifluoromethyl)-5-quinolyl]morpholine-2-carboxamide] returned a 50% inhibitory concentration (IC50) in data set [1] of 0.002 µM. The same compound came in with a thermodynamic solubility in data set [2] (setting [3]) of 350 µg/mL (≈ 754 µM).

Take `C[C@@H]1CN(c2ccc(C(F)(F)F)c3ncccc23)C[C@H](C(=O)NC2CNC[C@@H]2F)O1` (stereo partly drawn) [Example 2, cis-(2R,6R)-N-(4-fluoropyrrolidin-3-yl)-6-methyl-4-[8-(trifluoromethyl)-5-quinolyl]morpholine-2-carboxamide]: the 50% inhibitory concentration (IC50) in data set [1] worked out at 0.052 µM. For the same compound, the solubility (thermodynamic) in data set [2] (setting [3]) was > 585 µg/mL.

In turn, `C[C@@H]1CN(c2ccc(C(F)(F)F)c3ncccc23)C[C@H](C(=O)N2CCC(N)C2)O1` (stereo partly drawn) [Example 10, (3-aminopyrrolidin-1-yl)-[(2R,6R)-6-methyl-4-[8-(trifluoromethyl)-5-quinolyl]morpholin-2-yl]methanone] showed an IC50 in data set [1] of 0.36 µM. In data set [2] (setting [3]), the solubility (thermodynamic) was > 655 µg/mL.

Compound `Cc1ccc(N2C[C@@H](C)O[C@@H](C(=O)NC3CCN(C)CC3)C2)c2cccnc12` [Example 16, (2R,6R)-6-methyl-N-(1-methyl-4-piperidyl)-4-(8-methyl-5-quinolyl)morpholine-2-carboxamide] had a 50% inhibitory concentration (IC50) in data set [1] of 0.074 µM. Moreover, the thermodynamic solubility in data set [2] (setting [3]) was > 450 µg/mL.

`C[C@@H]1CN(c2ccc(C(F)(F)F)c3ncccc23)C[C@H](C(=O)N2CCC3(CCNCC3)CC2)O1` [Example 32, 3,9-diazaspiro[5.5]undecan-3-yl-[(2R,6R)-6-methyl-4-[8-(trifluoromethyl)-5-quinolyl]morpholin-2-yl]methanone] returned an IC50 in data set [1] of 0.078 µM. The thermodynamic solubility in data set [2] (setting [3]) is > 640 µg/mL.

In data set [1], `C[C@@H]1CN(c2ccc(C(F)(F)F)c3ncccc23)C[C@H](C(=O)NCC2CNCCO2)O1` (stereo partly drawn) [Example 48, (2R,6R)-6-methyl-N-(morpholin-2-ylmethyl)-4-[8-(trifluoromethyl)-5-quinolyl]morpholine-2-carboxamide] gave an IC50 of 0.004 µM. In addition, in data set [2] (setting [3]), the solubility (thermodynamic) is > 625 µg/mL.

`C[C@@H]1CN(c2ccc(C(F)(F)F)c3ncccc23)C[C@H](C(=O)NC[C@@H]2C[C@@H](F)CN2)O1` [Example 27, (2R,6R)-N-[[(2S,4R)-4-fluoropyrrolidin-2-yl]methyl]-6-methyl-4-[8-(trifluoromethyl)-5-quinolyl]morpholine-2-carboxamide] displayed an IC50 in data set [1] of 0.06 µM. In addition, the thermodynamic solubility in data set [2] (setting [3]) was > 585 µg/mL.

`CC(NC(=O)[C@H]1CN(c2ccc(C(F)(F)F)c3ncccc23)C[C@@H](C)O1)C1CN(C)CCO1` (single isomer, unassigned) [Example 35A]: the IC50 in data set [1] was 0.028 µM. Besides, the solubility (thermodynamic) in data set [2] (setting [3]) was > 600 µg/mL.

Compound `C[C@@H]1CN(c2ccc([N+](=O)[O-])c3ncccc23)C[C@H](C(=O)NCC2CN(C)CCO2)O1` (stereo partly drawn) [Example 18, (2R,6R)-6-methyl-N-[(4-methylmorpholin-2-yl)methyl]-4-(8-nitro-5-quinolyl)morpholine-2-carboxamide] showed a half-inhibitory concentration (IC50) in data set [1] of 0.005 µM. In data set [2] (setting [3]), the solubility (thermodynamic) is > 530 µg/mL.

For the compound `C[C@@H]1CN(c2ccc(C(F)(F)F)c3ncccc23)C[C@H](C(=O)NC2C3CCCC2CNC3)O1` (stereo partly drawn) [Example 45, (2R,6R)-N-(3-azabicyclo[3.3.1]nonan-9-yl)-6-methyl-4-[8-(trifluoromethyl)-5-quinolyl]morpholine-2-carboxamide], in data set [1], the 50% inhibitory concentration (IC50) is < 0.003 µM. Besides, in data set [2] (setting [3]), the thermodynamic solubility is > 660 µg/mL.

Regarding `C[C@H]1C[C@@H](N)CN(c2ccc(Cl)c3ncccc23)C1` [Example 23, (3R,5S)-1-(8-chloro-5-quinolyl)-5-methyl-piperidin-3-amine], in data set [1], the IC50 worked out at 0.007 µM. Moreover, the solubility (thermodynamic) in data set [2] (setting [3]) was > 315 µg/mL.

In the case of `C[C@@H]1CN(c2ccc(C(F)(F)F)c3ncccc23)C[C@H](C(=O)NCC2CN(C)CCO2)O1` (stereo partly drawn) [Example 3, (2R,6R)-6-methyl-N-[(4-methylmorpholin-2-yl)methyl]-4-[8-(trifluoromethyl)-5-quinolyl]morpholine-2-carboxamide], half-maximal inhibition in data set [1] (IC50) was put at 0.012 µM. The solubility (thermodynamic) in data set [2] (setting [3]) was > 690 µg/mL.

The compound `C[C@@H]1CN(c2ccc(C(F)(F)F)c3ncccc23)C[C@H](C(=O)NC2CC3CNCC32)O1` (single isomer, unassigned) [Example 49B] had an IC50 in data set [1] of 0.02 µM. For the same compound, the LYSA in data set [2] (setting [4]) was >690.0 µg/mL.

`C[C@@H]1CN(c2ccc(I)c3ncccc23)C[C@H](C(=O)NC2CCN(C)CC2)O1` [Example 38, (2R,6R)-4-(8-iodo-5-quinolyl)-6-methyl-N-(1-methyl-4-piperidyl)morpholine-2-carboxamide]: the IC50 in data set [1] stood at 0.003 µM. In data set [2] (setting [3]), the thermodynamic solubility is > 650 µg/mL.

`C[C@@H]1CN(c2ccc(Cl)c3ncccc23)C[C@H](C(=O)NC2CCN(C)CC2)O1` [Example 24, (2R,6R)-4-(8-chloro-5-quinolyI)-6-methyl-N-(1-methyl-4-piperidyl)morpholine-2-carboxamide] returned a half-maximal inhibitory concentration (IC50) in data set [1] of 0.015 µM. In addition, the thermodynamic solubility in data set [2] (setting [3]) is > 475 µg/mL.

Turning to `C[C@@H]1CN(c2ccc(C(F)(F)F)c3ncccc23)C[C@H](C(=O)NCC2CCCCN2C)O1` (stereo partly drawn) [Example 4, (2R,6R)-6-methyl-N-[(1-methyl-2-piperidyl)methyl]-4-[8-(trifluoromethyl)-5-quinolyl]morpholine-2-carboxamide], the IC50 in data set [1] came out at 0.006 µM. For the same compound, in data set [2] (setting [3]), the solubility (thermodynamic) was > 660 µg/mL.

Compound `C[C@@H]1CN(c2ccc(C(F)(F)F)c3ncccc23)C[C@H](C(=O)NC2C3CNCC2COC3)O1` (single isomer, unassigned) [Example 46B] showed an IC50 in data set [1] of 0.021 µM. For the same compound, the LYSA in data set [2] (setting [4]) is >667.0 µg/mL.

In data set [1], `C[C@@H]1CN(c2ccc(C(F)(F)F)c3ncccc23)C[C@H](C(=O)NC2CN(C)CC23CC3)O1` (stereo partly drawn) [Example 9, (2R,6R)-6-methyl-N-(5-methyl-5-azaspiro[2.4]heptan-7-yl)-4-[8-(trifluoromethyl)-5-quinolyl]morpholine-2-carboxamide] yielded a concentration for half-maximal inhibition (IC50) of 0.014 µM. In addition, the solubility (thermodynamic) in data set [2] (aqueous buffer, 0.05 M phosphate buffer (pH 6.5)) is > 685 µg/mL.

Take `Cc1ccc(N2C[C@@H](C)C[C@@H](N)C2)c2cccnc12` [Example 15, (3R,5S)-5-methyl-1-(8-methyl-5-quinolyl)piperidin-3-amine]: half-maximal inhibition in data set [1] (IC50) was put at 0.03 µM.

In the case of `C[C@H]1C[C@@H](N)CN(c2ccc(C(F)(F)F)c3ncccc23)C1` [Example 1, (3R,5S)-5-methyl-1-[8-(trifluoromethyl)-5-quinolyl]piperidin-3-amine], in data set [1], 0.005 µM corresponded to half-maximal inhibition (IC50). This IC50 is about 6-fold lower than that of the compound before.

The record behind these values is patent US20220363665A1, “QUINOLINE COMPOUNDS FOR THE TREATMENT OF AUTOIMMUNE DISEASE” (Hoffmann-La Roche Inc., priority 2019, published 2022).
